Patent publication US8343981B2, “Heterocyclyl-substituted dihydroquinazolines and their use as antiviral agents” (AiCuris GmbH & Co. KG, priority 2003, dated 2013)

Assays:
HCMV = assay: Anti-HCMV cytopathogenicity test; type: cell-based, human cytomegalovirus; conditions: for SI HCMV (selectivity index): CC50 (NHDF)/EC50 (HCMV); for EC50: Human betaherpesvirus 5, 144 h, HCMV-infected NHDF cells, M.O.I. 0.001-0.002, 6 days, 50% inhibition of cytopathic effect
Description: (§1) Anti-HCMV (Anti-Human Cytomegalovirus) Cytopathogenicity Tests The test compounds are employed as 50 millimolar (mM) solutions in dimethyl sulphoxide (DMSO). Ganciclovir®, Foscarnet® and Cidofovir® are used as reference compounds. After addition of in each case 2 μl of the 50, 5, 0.5 and 0.05 mM DMSO stock solutions to 98 μl portions of cell culture medium in row […] for duplicate determinations, 1:2 dilutions are carried out with 50 μl portions of medium up to row 11 of the 96-well plate. The wells in rows 1 and 12 each contain 50 μl of medium. Then 150 μl portions of a suspension of 1×10^4 cells (human prepuce fibroblasts [NHDF]) are pipetted into each of the wells (row 1=cell control) and, in rows 2-12, a mixture of HCMV-infected and uninfected NHDF cells (M.O.I.=0.001-0.002), i.e. 1-2 infected cells per 1000 uninfected cells. Row 12 (without substance) serves as virus control. The final test concentrations are 250-0.0005 μM. The plates are incubated at 37° C./5% CO2 for 6 days, i.e. until all the cells are infected in the virus controls (100% cytopathogenic effect [CPE]). The wells are then fixed and stained by adding a mixture of formalin and Giemsa's dye (30 minutes), washed with double-distilled water and dried in a drying oven at 50° C. The plates are then assessed visually using an overhead microscope (Plaque Multiplier from Technomara). The following data can be acquired from the test plates: • CC50 (NHDF)=substance concentration in μM at which no visible cytostatic effects on the cells are evident by comparison with the untreated cell control; • EC50 (HCMV)=substance concentration in μM which inhibits the CPE (cytopathic effect) by 50% compared with the untreated virus control; • SI (selectivity index)=CC50 (NHDF)/EC50 (HCMV).

[1] = Cytostatic effect on NHDF cells in the anti-HCMV cytopathogenicity test; type: cell-based; conditions: NHDF cells (human prepuce fibroblasts), 6 days incubation, visual assessment, concentration at which no visible cytostatic effects are evident
Description: as §1

Row | EC50 (HCMV) [µM] | SMILES | SI HCMV (selectivity index) (HCMV) | CC50 at 6 days [1] [µM]
1 | 0.09 | COc1ccc(C(F)(F)F)cc1N1C(N2CCn3c(cc4c(C)cccc43)C2)=Nc2c(F)cccc2C1CC(=O)O (single isomer, unassigned) [Example 2] | 233 | 21
2 | 0.12 | COc1ccc(C(F)(F)F)cc1N1C(N2CCn3c(cc4c(F)cccc43)C2)=Nc2c(F)cccc2C1CC(=O)O (single isomer, unassigned) [Example 4] | 117 | 14
3 | 0.02 | COc1ccc(C(F)(F)F)cc1N1C(N2CCN3c4ccc(F)cc4CC3C2)=Nc2c(F)cccc2C1CC(=O)O (single isomer, unassigned) [Example 16, {8-Fluoro-2-(8-fluoro-3,4,10,10a-tetrahydropyrazino[1,2-a]indol-2(1H)-yl)-3-[2-methoxy-5-(trifluoromethyl)phenyl]-3,4-dihydroquinazolin-4-yl}acetic acid] | 1050 | 21
4 | 0.04 | COc1ccc(C(F)(F)F)cc1N1C(N2CCN3c4cccc(C)c4CC3C2)=Nc2c(F)cccc2C1CC(=O)O (stereo not drawn) [Example 9, [8-Fluoro-3-[2-methoxy-5-(trifluoromethyl)phenyl]-2-(9-methyl-3,4,10,10a-tetra-hydropyrazino[1,2-a]indol-2(1H)-yl)-3,4-dihydroquinazolin-4-yl]acetic acid] | 600 | 24
